{"source": "patent US11591306B2", "about": "“Vitamin E-based amphipathic compound, and use thereof” (Industry-University Cooperation Foundation Hanyang …, priority 2017, dated 2023)", "key": {"UapA [1]": {"target": "T1, UapA (Emericella nidulans, UniProt Q07307, G411V)", "assay": "UapA thermal stability, CPM assay", "set-up": "made in house; host or cells: Saccharomyces cerevisiae FGY217 membranes", "conditions": "CMC+0.2 wt %, 40° C. for 120 minutes", "method": "UapAG411VΔ1-11 (hereinafter, referred to as “UapA”) was expressed in a Saccharomyces cerevisiae FGY217 strain by GFP fusion, and isolated into a sample buffer (20 mM Tris (pH 7.5), 150 mM NaCl, 0.03% DDM, 1 mM xanthine), which was performed according to the method disclosed in the paper written by J. Leung et al. (Mol. Menthr. Biol. 2013, 30, 32-42). The protein was concentrated to be approximately 10 mg/ml using a 100 kDa molecular weight cutoff filter (Millipore). The protein was diluted 1:150 with a buffer containing DDM, VEG (VEG-1, VEG-2, VEG-3, VEG-4 or VEG-5) or LMNG at CMC+0.2 wt % in Greiner 96. CPM dye (Invitrogen) stored in DMSO (Sigma) was diluted with a dye buffer (20 mM Tris (pH 7.5), 150 mM NaCl, 0.03% DDM, 5 mM EDTA), and 3 μL of the diluted dye was added to an individual protein sample. The reaction mixture was treated at a constant temperature of 40° C. for 120 minutes. A fluorescence emission intensity was monitored using a microplate spectrofluorometer set to excitation and emission wavelengths of 387 and 463 nm, respectively. The maximum fluorescence value was used to calculate the percentage of a protein folded during incubation. The relative amount of the folded protein was plotted over time using GraphPad Prism."}, "LHI-RC complex": {"test_system": "T2, LHI-RC complex", "T2 construct": "His tag (only implied by Ni2+-NTA capture and imidazole elution; put on M from own knowledge of pUHTM86Bgl); made in house; host or cells: R. capsulatus U43 [pUHTM86Bgl] membranes", "assay": "LHI-RC structural stability, UV-Vis absorbance at 875 nm", "set-up": "species or system R. capsulatus", "conditions": "CMC+0.04 wt % or CMC+0.2 wt %, 20 days at 25° C.", "method": "An experiment was conducted to evaluate the ability of VEGs to stabilize the structure of LHI-RC. The photosynthetic superassembly consists of a complex of light-Harvesting complex I (LHI) and a reaction center (RC). The structural stability of LHI-RC was measured by a method of monitoring the structure of a protein for 20 days using UV-Vis spectroscopy. As amphipathic molecules, all VEGs of the present invention and conventional amphipathic molecules DDM and OG were used, and the concentrations of the amphipathic molecules were measured at CMC+0.04 wt % (FIG. 5A) and CMC+0.2 wt % ([…]), and the stability of the LHI-RC protein was investigated according to the concentration of an amphipathic molecule.\nSpecifically, LHI-RC stability was measured using a method disclosed in the paper published in 2008 by the inventors (P. S. Chae et al., ChemBioChem 2008, 9, 1706-1709). […] A 10 mL aliquot of the solution of the frozen R. capsulatus membrane was homogenized using a glass homogenizer, and incubated with gentle stirring at 32° C. for 30 minutes. The homogenized membrane was treated with 1.0 wt % DDM for 30 minutes at 32° C. […] Protein stability was measured at regular intervals during the cubation by measuring UV-Vis spectra of the samples in the range of 650 to 950 nm. Protein integrity was evaluated by monitoring absorbance (A875) at 875 nm."}, "β2AR-Gs complex": {"target": "T3, β2AR-Gs complex (Homo sapiens, UniProt P07550)", "T3 construct": "made in house", "assay": "Negative stain EM analysis of β2AR-Gs complex", "conditions": "complex purified by VEG-3", "method": "A β2AR-Gs protein complex was prepared for electron microscopy using a conventional negative staining protocol, and imaged at room temperature using a Tecnai T12 electron microscope operated at 120 kV according to a low-dose procedure. Images recorded at a magnification of 71,138× and a defocus value of approximately −1.1 urn on a Gatan US4000 CCD camera. All images were binned (2×2 pixels) to obtain a pixel size of 4.16 Å at a specimen level. Particles were manually […] using e2boxer (part of the EMAN2 software suite). 2D reference-free alignment and classification of particle projections were performed using ISAC. 23,035 projections of β2AR-Gs were subjected to ISAC producing 19 classes consistent in two-way matching and 5401 particle projections."}, "UapA [2]": {"target": "T1, UapA", "assay": "UapA extraction and thermal stability by fluorescence size exclusion chromatography (FSEC)", "set-up": "made in house", "method": "The membrane containing UapA was resuspended in a pH 8.0 PBS buffer containing 10 mM imidazole, 150 mM NaCl and 10% glycerol, and a protein concentration was measured. The membrane was adjusted to a concentration of 1 mg/ml, and a 1 ml aliquot was incubated for 60 minutes with each of 1.0 mL of DDM, LMNG, VEG-3 and VEG-5, on ice under stirring. A 100 uL aliquot was obtained from each tube and subjected to ultracentrifugation for 10 minutes at 150,000 g, and then fluorescent SEC (FSEC) was performed on each sample. The remaining soluble fractions were incubated for 10 minutes at 45° C. The thermally-treated samples were applied to FSEC to monitor the integrity of a transporter. FSEC was performed using a Superose6 column (GE Healthcare) equilibrated with a buffer containing an appropriate preparation (DDM, LMNG, VEG-3 or VEG-5)."}}}
{"compound": "Cc1c(C)c2c(c(C)c1OCC(=O)NC(CO[C@@H]1OC(CO)[C@@H](O[C@H]3OC(CO)[C@@H](O)[C@H](O)C3O)[C@H](O)C1O)CO[C@@H]1OC(CO)[C@@H](O[C@H]3OC(CO)[C@@H](O)[C@H](O)C3O)[C@H](O)C1O)CCC(C)(CCCC(C)CCCC(C)CCCC(C)C)O2", "note": "(some centres unmarked) [VEG-3]", "values": [{"measurement": "Ability to maintain UapA in a structurally stable state (CPM assay)", "setting": "UapA [1]", "value": "excellent ability to maintain UapA in a structurally stable state"}, {"measurement": "Ability to maintain the integrity of the LHI-RC complex (A875)", "setting": "LHI-RC complex", "value": "most excellent effect"}, {"measurement": "Homogeneity of β2AR-Gs complex particles (negative stain EM)", "setting": "β2AR-Gs complex", "value": "highly homogeneous"}, {"measurement": "UapA integrity after thermal treatment (FSEC)", "setting": "UapA [2]; 45° C. for 10 minutes", "value": "maintained protein integrity"}, {"measurement": "Ability to extract and solubilize UapA (FSEC)", "setting": "UapA [2]; before thermal treatment, 60 minutes on ice", "value": "LMNG and DDM were superior to VEG-3 and VEG-5"}]}
